The results in this text go back to publication PMC6965684, “Characterization of binding, functional activity, and contractile responses of the selective 5‐HT1F receptor agonist lasmiditan” (British Journal of Pharmacology, 2019).

pEC50: −log10 of the molar value. Where a name gives a salt, the structure may show the parent alone. Read-outs that look alike come from different tables or passages of the source.

Assay [1] has as its target T1, 5-ht1E receptor (Homo sapiens, UniProt P28566).
T1 construct: gene HTR1E; full-length human recombinant receptor in CHO-K1 cells (Ogeda); crude membranes
In words: biochemical. The class given is CHO-K1 membranes. The arrangement: GTPγS agonist functional assay. The conditions noted are these: GTPγS. The source says:
(§1) Additionally, the reference values obtained were compared to historical values obtained from the same receptor and used to validate the experimental session. […] For the new assays developed in this study (i.e., 5‐ht1E receptor), the two independent pIC50 determined must be concordant with a 1 log unit interval for the assays to be validated.

The target in assay [2] is T2, 5-HT1F receptor (Homo sapiens, UniProt P30939).
T2 construct: gene HTR1F; full-length human recombinant receptor in CHO-K1 cells (Ogeda)
T2 sequence (P30939 1-366): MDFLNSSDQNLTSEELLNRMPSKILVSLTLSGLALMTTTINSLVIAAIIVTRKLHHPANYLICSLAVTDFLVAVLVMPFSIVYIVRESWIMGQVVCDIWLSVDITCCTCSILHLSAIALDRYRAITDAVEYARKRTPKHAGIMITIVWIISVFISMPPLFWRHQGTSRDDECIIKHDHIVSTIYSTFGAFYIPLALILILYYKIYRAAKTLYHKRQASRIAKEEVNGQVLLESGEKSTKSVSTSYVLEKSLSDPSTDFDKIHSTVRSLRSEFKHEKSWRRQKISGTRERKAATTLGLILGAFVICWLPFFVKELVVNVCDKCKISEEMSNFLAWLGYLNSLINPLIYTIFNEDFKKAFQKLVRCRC
Put plainly: biochemical. Conditions: GTPγS. The arrangement: GTPγS agonist functional assay. The class given is CHO-K1 membranes.
Description: as §1

The target of assay [3] is T1, 5-ht1E receptor. Put plainly: cell-based. The arrangement: species or system CHO-K1; cAMP HTRF agonist assay, Gi coupled receptors, inhibition of stimulated cAMP. Conditions: cAMP. As to the method: (§2) Concentration–response curves were performed in parallel with the agonists. […] After addition of the lysis buffer and 1‐hr incubation, cAMP concentrations were estimated according to the manufacturer specification with the HTRF kit (Cisbio International, Codelet, France). In brief, increasing concentrations of agonists were added to stably transfected cells in buffer in an Optiplate (PerkinElmer Life Sciences, Massachusetts, USA). The plates were incubated, and cells were then lysed by the addition of HTRF reagents (cAMP‐Cryptate and anti‐cAMP‐d2 reagents) and diluted in lysis buffer, followed by incubation at room temperature. […] Additionally, the reference values obtained were compared to historical values obtained from the same receptor and used to validate the experimental session. […] For the new assays developed in this study (i.e., 5‐ht1E receptor), the two independent pIC50 determined must be concordant with a 1 log unit interval for the assays to be validated.

In assay [4] the target is T3, 5-HT2A receptor (Homo sapiens, UniProt P28223).
T3 construct: gene HTR2A; full-length human recombinant receptor in CHO-K1 cells (Ogeda); crude membranes
T3 sequence (P28223 whole entry): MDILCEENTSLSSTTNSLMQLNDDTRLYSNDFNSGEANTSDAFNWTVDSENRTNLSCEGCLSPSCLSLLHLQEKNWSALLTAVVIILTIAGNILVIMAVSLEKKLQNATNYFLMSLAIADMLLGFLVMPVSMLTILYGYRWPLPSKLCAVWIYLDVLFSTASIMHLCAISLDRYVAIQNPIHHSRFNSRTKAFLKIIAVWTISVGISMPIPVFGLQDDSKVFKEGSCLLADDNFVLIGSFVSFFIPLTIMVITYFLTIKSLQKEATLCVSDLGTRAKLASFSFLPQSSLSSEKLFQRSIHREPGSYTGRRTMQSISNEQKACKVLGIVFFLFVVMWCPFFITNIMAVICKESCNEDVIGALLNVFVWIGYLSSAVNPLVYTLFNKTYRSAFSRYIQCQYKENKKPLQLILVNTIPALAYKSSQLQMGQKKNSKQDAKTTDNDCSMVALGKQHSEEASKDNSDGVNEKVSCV
In words: radioligand competition, CHO-K1 membranes. In kind it is binding. The conditions noted are these: read-out: 5-HT2A / pKi (converted). The source says: radioligand competition, CHO-K1 membranes on 5-HT2A receptor
Background: In a radioligand displacement assay an active substance lowers the binding of a labelled ligand.

Assay [5] concerns the target T4, 5-HT1A receptor (Homo sapiens, UniProt P08908).
T4 construct: gene HTR1A; full-length human recombinant receptor in CHO-K1 cells (Ogeda); crude membranes
T4 sequence (P08908 1-422): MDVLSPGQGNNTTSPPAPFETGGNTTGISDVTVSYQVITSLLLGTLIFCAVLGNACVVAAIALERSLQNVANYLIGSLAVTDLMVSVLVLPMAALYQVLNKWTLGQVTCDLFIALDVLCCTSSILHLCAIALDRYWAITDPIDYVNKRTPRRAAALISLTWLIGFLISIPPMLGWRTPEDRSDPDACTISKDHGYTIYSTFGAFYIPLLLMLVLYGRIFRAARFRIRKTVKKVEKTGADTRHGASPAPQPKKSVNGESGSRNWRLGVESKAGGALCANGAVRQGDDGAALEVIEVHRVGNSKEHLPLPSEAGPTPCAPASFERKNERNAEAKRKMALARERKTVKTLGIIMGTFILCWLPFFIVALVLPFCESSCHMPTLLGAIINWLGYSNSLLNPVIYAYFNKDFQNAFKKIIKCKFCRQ
In words: radioligand competition, CHO-K1 membranes. The class given is binding. The conditions noted are these: read-out: 5-HT1A / pKi (converted). The source says: radioligand competition, CHO-K1 membranes on 5-HT1A receptor

Assay [6] concerns the target T5, 5-HT1B receptor (Homo sapiens, UniProt P28222).
T5 construct: gene HTR1B; full-length human recombinant receptor in CHO-K1 cells (Ogeda); crude membranes
Put plainly: biochemical. The class given is CHO-K1 membranes. Also noted: GTPγS agonist functional assay. Conditions: for EC50: GTPγS, read-out: 5‐HT1B / GTPγS (converted).
Description: as §1

The target in assay [7] is T6, 5-HT1D receptor (Homo sapiens, UniProt P28221).
T6 construct: gene HTR1D; full-length human recombinant receptor in CHO-K1 cells (Ogeda); crude membranes
T6 sequence (P28221 whole entry): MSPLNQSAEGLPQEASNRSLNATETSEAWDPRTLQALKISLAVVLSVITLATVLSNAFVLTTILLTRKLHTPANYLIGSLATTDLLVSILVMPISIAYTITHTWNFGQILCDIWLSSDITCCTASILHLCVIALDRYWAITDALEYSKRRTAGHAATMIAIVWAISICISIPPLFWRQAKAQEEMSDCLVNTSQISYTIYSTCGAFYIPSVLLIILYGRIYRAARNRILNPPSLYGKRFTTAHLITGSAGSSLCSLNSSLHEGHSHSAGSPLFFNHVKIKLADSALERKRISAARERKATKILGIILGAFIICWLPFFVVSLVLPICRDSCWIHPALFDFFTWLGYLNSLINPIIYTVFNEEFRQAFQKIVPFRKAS
Put plainly: biochemical. The class given is CHO-K1 membranes. The arrangement: GTPγS agonist functional assay. The conditions noted are these: for EC50: GTPγS, read-out: 5‐HT1D / GTPγS (converted).
Description: as §1

Assay [8] addresses T2, 5-HT1F receptor. Put plainly: radioligand competition, CHO-K1 membranes. The class given is binding. The conditions noted are these: read-out: 5-HT1F / pKi (converted).
In assay [9] the target is T5, 5-HT1B receptor. In words: cell-based. Also noted: species or system CHO-K1; cAMP HTRF agonist assay, Gi coupled receptors, inhibition of stimulated cAMP. The conditions noted are these: for EC50: cAMP, read-out: 5‐HT1B / cAMP (converted). The procedure:
as §2

Assay [10] concerns the target T1, 5-ht1E receptor. In words: radioligand competition, CHO-K1 membranes. In kind it is binding. The conditions noted are these: read-out: 5-ht1E / pKi (converted). The source says:
radioligand competition, CHO-K1 membranes on 5-ht1E receptor

Assay [11] concerns the target T7, 5-HT2B receptor (Homo sapiens, UniProt P41595).
T7 construct: gene HTR2B; full-length human recombinant receptor in CHO-K1 cells (Ogeda); crude membranes
In words: radioligand competition, CHO-K1 membranes. In kind it is binding. The conditions noted are these: for Ki: read-out: 5-HT2B / pKi (converted). The source says: radioligand competition, CHO-K1 membranes on 5-HT2B receptor

The target in assay [12] is T2, 5-HT1F receptor. Put plainly: cAMP HTRF, stably transfected CHO-K1 cells. In kind it is cell-based. Conditions: for EC50: read-out: 5-HT1F / cAMP (converted). For orientation: In TR-FRET formats the signal depends on donor and acceptor labels being close together.

T5 sequence (P28222 whole entry): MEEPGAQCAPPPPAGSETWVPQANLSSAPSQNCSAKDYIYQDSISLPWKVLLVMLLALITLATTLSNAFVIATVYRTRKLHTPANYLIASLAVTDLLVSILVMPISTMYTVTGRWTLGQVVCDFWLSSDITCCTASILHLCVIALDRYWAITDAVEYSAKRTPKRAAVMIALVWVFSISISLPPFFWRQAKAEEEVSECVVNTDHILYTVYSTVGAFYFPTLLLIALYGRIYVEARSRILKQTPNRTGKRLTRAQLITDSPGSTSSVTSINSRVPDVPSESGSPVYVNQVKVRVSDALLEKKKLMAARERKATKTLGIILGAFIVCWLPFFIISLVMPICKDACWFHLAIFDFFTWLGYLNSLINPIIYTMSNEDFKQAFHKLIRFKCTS
T7 sequence (P41595 whole entry): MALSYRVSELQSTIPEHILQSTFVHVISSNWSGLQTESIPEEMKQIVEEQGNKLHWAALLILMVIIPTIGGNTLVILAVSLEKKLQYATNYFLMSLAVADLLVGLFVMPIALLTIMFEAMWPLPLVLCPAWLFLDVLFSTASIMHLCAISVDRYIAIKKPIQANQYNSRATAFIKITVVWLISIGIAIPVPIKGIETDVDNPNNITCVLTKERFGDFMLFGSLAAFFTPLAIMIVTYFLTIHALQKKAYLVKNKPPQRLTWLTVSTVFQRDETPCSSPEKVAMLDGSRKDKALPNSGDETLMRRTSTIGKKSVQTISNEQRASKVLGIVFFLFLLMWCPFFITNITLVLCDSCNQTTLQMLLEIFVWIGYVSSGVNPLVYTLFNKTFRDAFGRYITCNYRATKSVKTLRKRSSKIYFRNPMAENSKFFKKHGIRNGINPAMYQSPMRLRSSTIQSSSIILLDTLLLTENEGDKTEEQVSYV
T1 sequence (P28566 whole entry): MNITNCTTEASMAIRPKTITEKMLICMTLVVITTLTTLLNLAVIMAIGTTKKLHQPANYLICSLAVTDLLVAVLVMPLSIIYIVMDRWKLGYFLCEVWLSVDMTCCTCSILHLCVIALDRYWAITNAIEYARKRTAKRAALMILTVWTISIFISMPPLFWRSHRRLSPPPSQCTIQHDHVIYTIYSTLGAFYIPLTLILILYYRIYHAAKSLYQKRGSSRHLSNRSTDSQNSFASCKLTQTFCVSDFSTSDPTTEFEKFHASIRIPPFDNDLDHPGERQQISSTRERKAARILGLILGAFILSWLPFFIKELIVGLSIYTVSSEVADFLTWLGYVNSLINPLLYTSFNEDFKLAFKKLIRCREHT

Take `CNC1CCc2[nH]c3ccc(C(N)=O)cc3c2C1` (racemic) [Frovatriptan racemate]: the pEC50 in assay [1] is below 5.00; in assay [2], 6.35; in assay [3], 5.04.
As for `CNS(=O)(=O)Cc1ccc2[nH]cc(CCCN3CCN(c4ncncc4OC)CC3)c2c1` [Avitriptan fumarate], the Ki in assay [4] is 2.34 µM; in [5], 0.0195 µM; in assay [8] it was 0.0776 µM; in assay [10], 3.55 µM; in [11], 1.15 µM. The EC50 is 0.00209 µM in assay [6], 0.000537 µM in assay [7], 0.00269 µM in [9] and 0.0813 µM in assay [12]. Also, the figures for the pEC50 in assay [1], in assay [2] and in assay [3] were below 5.00, 6.05 and 5.52, respectively.
On to `N#Cc1ccc(N2CCN(C(=O)COc3ccc4[nH]cc(CCN)c4c3)CC2)cc1` [Donitriptan hydrochloride], for which the Ki in [4] is 0.447 µM; in [5] it was 0.0117 µM; in [10], 1.7 µM; in [11], 0.813 µM. The pEC50 in [6] is 9.52; in assay [7], 9.51; in assay [1], below 5.00; in assay [9], 9.96; in assay [3], below 5.00; in assay [12] (read-out: 5-HT1A / cAMP) it was below 5.00.
In the case of `CN1CCC[C@@H]1Cc1c[nH]c2ccc(CCS(=O)(=O)c3ccccc3)cc12` [Eletriptan hydrobromide], the Ki in [4] was 1.15 µM; in assay [5] it was 0.00195 µM; in assay [8], 0.017 µM; in assay [10], 0.0617 µM; in assay [11], 0.447 µM. Besides, the EC50 in assay [6] was 0.00813 µM; in [7], 0.000912 µM; in assay [9] it was 0.01 µM; in assay [12], 0.00741 µM. Besides, the pEC50 is 6.90 in assay [1], 6.88 in [2] and 7.53 in [3].
In the case of `CN(C)[C@@H]1CCc2[nH]c3ccc(NC(=O)c4ccc(F)cc4)cc3c2C1` [LY344864 hydrochloride], in assay [7], the EC50 is 0.117 µM. In assay [2], this compound showed a pEC50 of 7.85.
For the compound `CNS(=O)(=O)CCc1ccc2[nH]cc(C3CCN(C)CC3)c2c1` [Naratriptan hydrochloride], the Ki in assay [5] is 0.0151 µM; in assay [8], 0.00178 µM; in assay [10], 0.00741 µM. The results for the EC50 in assay [6], in assay [9] and in assay [12] were 0.00138 µM, 0.00891 µM and 0.00417 µM, respectively. Further, the figures for the pEC50 in assay [1], in assay [2] and in assay [3] were 8.17, 8.05 and 7.75, respectively. For the same compound, the “5-HT2B / pKi” value in [11] (radioligand listed in supplement Table S1, unreliable (pIC50 printed as <[…])) is listed as 5.08 -log M.
